According to patent US20160038474A1, “COMPOSITIONS AND METHODS FOR THE MODULATION OF HEMOGLOBIN (S)” (GLOBAL BLOOD THERAPEUTICS, INC., priority 2013, published 2016):

Key:
Type in all cases: in vivo
[1] = Pharmacokinetics after single dose of GBT440 (FIG. 1), dog
Source text: (§1) FIG. 1 graphically illustrates the high oral bioavailability, sustained exposure and dramatic RBC partitioning following single dose of GBT440. Certain relevant pharmacokinetic parameters are tabulated below:
(§2) FIG. 1 in parts A, B, and C graphically illustrates the high in vivo oral bioavailability, sustained exposure and the high RBC partitioning following single dose of GBT440.

[2] = Pharmacokinetics after single dose of GBT440 (FIG. 1), rat
Source text: as §1, §2

[3] = Pharmacokinetics after single dose of GBT440 (FIG. 1), monkey
Source text: as §1, §2

bioavailability ([1]; in vivo, IV 1 mg/kg, PO 2.5 mg/kg, read-out: Oral bioavailability (% F)): 36.6%
blood plasma ratio ([1]; whole blood and plasma): 74.4
bioavailability ([2]; in vivo, IV 1.6 mg/kg, PO 7.2 mg/kg, read-out: Oral bioavailability (% F)): 59.8%
blood plasma ratio ([2]; whole blood and plasma): 69
bioavailability ([3]; in vivo, IV 1 mg/kg, PO 4.25 mg/kg, read-out: Oral bioavailability (% F)): 36.1%
blood plasma ratio ([3]; whole blood and plasma): 70.9
Compound: CC(C)n1nccc1-c1ncccc1COc1cccc(O)c1C=O [GBT440]
